The text below walks through data of ChEMBL document CHEMBL2390907, “Juglone, isolated from Juglans mandshurica Maxim, induces apoptosis via down-regulation of AR expression in human prostate cancer LNCaP cells” (Bioorg Med Chem Lett, 2013).

The source made the active and inactive calls. The rule behind the calls is not given here. A value given as a limit tells only on which side of the number the result lay.

As a reminder, the IC50 is the concentration that gives 50% inhibition. Read a high IC50 as a need for much substance.

In experiment [1] the test system is LNCaP. As to the kind of experiment: Induction of apoptosis in human LNCAP cells assessed as decrease of DHT-induced prostate-specific antigen mRNA expression at 15 uM treated 2 hrs before DHT challenge measured after 24 hrs by RT-PCR analysis. Format: functional, cell-based.
The subject of experiment [2] is LNCaP. Kind of experiment: Induction of apoptosis in human LNCAP cells assessed as decrease of DHT-induced androgen receptor mRNA expression at 15 uM treated 2 hrs before DHT challenge measured after 24 hrs by RT-PCR analysis. Format: functional, cell-based.
Experiment [3] has as its system LNCaP. As to the kind of experiment: Induction of apoptosis in human LNCAP cells assessed as decrease of prostate-specific antigen protein expression at 5 uM after 24 hrs by Western blot analysis. Format: functional, cell-based.
Experiment [4] deals with LNCaP. Kind of experiment: Induction of apoptosis in human LNCAP cells assessed as decrease of androgen receptor protein expression at 5 uM after 24 hrs by Western blot analysis. The experiment is classed as functional, cell-based. (In general: In western blotting, separated proteins are transferred to a membrane and probed.)
Experiment [5] has as its system LNCaP. Kind of experiment: Induction of apoptosis in human LNCAP cells assessed as decrease of prostate-specific antigen protein expression after 24 hrs by Western blot analysis. The experiment is classed as functional, cell-based.
Experiment [6] concerns LNCaP. Kind of experiment: Induction of apoptosis in human LNCAP cells assessed as decrease of androgen receptor protein expression after 24 hrs by Western blot analysis. Format: functional, cell-based.
The test system of experiment [7] is LNCaP. As to the kind of experiment: Induction of apoptosis in human LNCAP cells assessed as decrease of mitochondria membrane potential after 24 hrs using rhodamine 123 dye by flow cytometry. The experiment is classed as functional, cell-based. (A flow cytometer gives signals particle by particle.)
The test system of experiment [8] is LNCaP. As to the kind of experiment: Induction of apoptosis in human LNCAP cells assessed as activation of caspase-3 and 9 at 15 uM after 24 hrs by Western blot analysis relative to control. Format: functional.
The test system of experiment [9] is LNCaP. As to the kind of experiment: Induction of apoptosis in human LNCAP cells assessed as cleavage of precursor of caspase-3 and 9 after 24 hrs by Western blot analysis. Format: functional, cell-based.
Experiment [10] relates to LNCaP. As to the kind of experiment: Induction of apoptosis in human LNCAP cells assessed as increase of annexin V-FITC/PI staining positive cells after 24 hrs by flow cytometry. The experiment is classed as functional, cell-based.
Experiment [11] deals with LNCaP. Kind of experiment: Induction of apoptosis in human LNCAP cells assessed as membrane blebbing at 5 to 15 uM after 24 hrs using Hoechst 33342 staining by fluorescence microscopic analysis. Format: functional, cell-based.
For experiment [12], the system named is LNCaP. Kind of experiment: Induction of apoptosis in human LNCAP cells assessed as cell shrinkage at 5 to 15 uM after 24 hrs using Hoechst 33342 staining by fluorescence microscopic analysis. Format: functional, cell-based.
Experiment [13] concerns LNCaP. As to the kind of experiment: Induction of apoptosis in human LNCAP cells assessed as nuclear condensation at 5 to 15 uM after 24 hrs using Hoechst 33342 staining by fluorescence microscopic analysis. Format: functional, cell-based.
Experiment [14] deals with LNCaP. As to the kind of experiment: Antiproliferative activity against human LNCAP cells after 24 hrs by MTT assay. The experiment is classed as functional, cell-based. A general note: Tetrazolium dyes change colour on reduction, which living cells bring about.

In the case of `O=C1C=CC(=O)c2c(O)cccc21` [JUGLONE], the outcome in the experiment on LNCaP [1], in the experiment with LNCaP [2], in the experiment on LNCaP [11], with LNCaP [12] and in the experiment on LNCaP [13] was Active. The result with LNCaP [3] and in the experiment with LNCaP [4] was inactive. Moreover, the Activity entry in the experiment with LNCaP [5], in the experiment with LNCaP [6], with LNCaP [7], with LNCaP [9], in the experiment on LNCaP [10] and in the experiment with LNCaP [14] was “Dose-dependent effect” throughout. The “fold change (FC)” value in the experiment with LNCaP [8] was more than 2.5. Moreover, half-maximal inhibition with LNCaP [14] (IC50) required 13.8 µM.
